Measured values from publication PMC9218946, “Identification of a Subtype-Selective Allosteric Inhibitor of GluN1/GluN3 NMDA Receptors” (Frontiers in Pharmacology, 2022).
Where a name gives a salt, the structure may show the parent alone.

Experiments:
GluN1/GluN3A receptors [1] = target: T1, GluN1/GluN3A receptors (UniProt Q05586+Q9R1M7); assay: High-throughput Fluo-4 calcium assay (FDSS/μCell) in HEK-293 cells stably expressing GluN1/GluN3A; type: cell-based, human GluN1-1a, rat GluN3A; parameters: expressed in transfected cells; conditions: primary and secondary screening
Experimental: The HEK-293 cells stably expressing GluN1/GluN3A receptors were seeded at a density of 10,000 cells/well in the 384-well plates, and expression was induced with 1 μg/ml doxycycline for 24–28 h. Then the culture medium was removed, Fluo-4 (Invitrogen) was loaded and the cells were incubated in the 37°C incubator away from light for 1 h ([Gee et al., 2000]). The plates were gently washed twice with Ca^2+-free buffer and then incubated with one of the 2560 compounds (from the Chinese National Compound Library) or DMSO (1% and 0.33%) for 20 min. A fixed concentration of 30 μM and dual concentrations of 10 μM and 30 μM were applied in the primary and secondary screening, respectively. Two replicates were set up for each condition. […] A FDSS/μCell platform (Hamamatsu) was used to measure the fluorescence signals. The excitation (Ex) and emission (Em) wavelengths were set to 480 and 540 nm, respectively. The inhibitory effects of tested compounds were compared by the ratios of fluorescence (F) with (F drug) and without (F control) the compounds. The F control value in these assays represented the value of basal Fluo-4 fluorescence plus glycine-stimulated fluorescence, and the F drug indicated the total Fluo-4 fluorescence after treatment of the drugs. Both the F drug and F control values were taken at the peak. The Ca^2+-free buffer used to dilute Fluo-4 and wash cell-plates contained (in mM): 140 NaCl, 5 KCl, 1 MgCl2, 10 glucose, 10 HEPES, and 0.5 EGTA. The pH was adjusted to 7.2 using NaOH. To dilute the compounds, 2 mM of free Ca^2+ was added in addition to the other components of the buffer.

GluN1/GluN3A receptors [2] = target: T1, GluN1/GluN3A receptors; assay: Whole-cell patch-clamp recording on GluN1/GluN3A Flp-in T-REx 293 stable cell lines; type: cell-based, human GluN1-1a, rat GluN3A; parameters: expressed in transfected cells; conditions: for remaining activity at 3 µM: Flp-In-T-REx-293, read-out: I drug/I control; for I drug/I control: 3 μM compound, whole-cell patch-clamp, mean ± SEM, drug application order as in FDSS/μCell Ca2+ imaging (CGP-78608, then glycine)
Experimental: To establish GluN1/GluN3A stable cell lines, the human GluN1-1a (GenBank: NP_015566.1) and the rat GluN3A (GenBank: NP_612555.1) genes were subcloned into the pcDNA5-FRT-To and pcDNA3.1 vectors, respectively. An EGFP tag was added to the C-terminus of GluN1 or GluN3A using a T2A linker for identification of transfected cells during transient transfection. Point mutations were introduced by site-directed mutagenesis using PrimeSTAR (Takara). The human GluN2A (GenBank: NP_000824.1) gene was subcloned into the pcDNA3.1 vector. The chimeras GluN3A^670-673 MWPL/LEPF and GluN2A^550-553 LEPF/MWPL were generated using In-Fusion HD Cloning kits (Takara). All constructs were confirmed by DNA sequencing (Beijing Genomics Institute).
The Flp-in T-Rex 293 cell lines (Invitrogen), stably expressing GluN1/GluN3A were grown in DMEM basal medium (Gibco) supplemented with 10% fetal bovine serum (FBS, Invitrogen), 15 μg/ml blasticidin S (Invitrogen), 50 μg/ml hygromycin B (Invitrogen) and 500 μg/ml G418 (Gibco). Expression in cell lines was induced with 1 μg/ml doxycycline (Invitrogen) 24–28 h prior to the experiments. Chinese hamster ovary (CHO) cells were grown in DMEM-F12 basal medium (Gibco) supplemented with 10% FBS. In the study on the action sites of WZB117, all whole-cell patch-clamp recordings were performed on CHO cells. The transfections were carried out using Lipofectamine 3000 transfection reagent (Thermo Fisher) according to the manufacturer’s instructions. All cells mentioned above were cultured in a 5% CO2 incubator at 37°C and passaged every other day at a ratio of 1:3.
Whole-cell patch-clamp recordings were performed at room temperature (22–25°C) using an EPC-10 amplifier and Patch Master Software (HEKA). Pipettes were pulled from borosilicate glass capillaries (World Precision Instruments), and the resistances were 3–5 MΩ when filled with the intracellular solution. The extracellular solution contained (in mM): 140 NaCl, 2.8 KCl, 1 CaCl2, 10 HEPES and 20 sucrose (290–300 mOsm), pH adjusted to 7.3 using NaOH. The pipette solution contained (in mM): 115 CsF, 10 CsCl, 10 HEPES and 10 BAPTA (280–290 mOsm), pH adjusted to 7.2 using CsOH ([Grand et al., 2018]). When recording in hippocampal neurons, the extracellular solution contained (in mM): 140 NaCl, 5 KCl, 1 CaCl2, 1.25 MgCl2, 10 glucose, and 10 HEPES, and the pH was adjusted to 7.4 using NaOH, and the pipette solution contained (in mM): 140 KCl, 1 MgCl2, 10 EGTA, and 10 HEPES, and the pH was adjusted to 7.2 using KOH ([Xie et al., 2020]). Drug-containing solutions were applied through an RSC-200 Rapid Solution Changer with a 9-tube head (BioLogic Co., France), in which the cell is positioned close to the output of a capillary. The solution, containing either one drug or a combination of different drugs, to be assayed flows out of the capillary at a moderate flow rate by gravity. The lifted cell, exposed to this stream, rapidly equilibrates in the perfusion solution. Whole-cell patch-clamp recordings in heterologous cells and hippocampal neurons were performed at a holding potential of −60 mV. Currents were sampled at 10 kHz and low pass filtered at 2.9 kHz. To record the native GluN1/GluN3 receptor-mediated currents, the extracellular solution was supplemented with 10 μM bicuculline (Sigma-Aldrich), 2 μM NBQX (Topscience), 100 μM D-APV (MCE), and 50 μM strychnine (UHN Shanghai) to block γ-aminobutyric acid type A (GABAA), α-amino-3-hydroxy-5-methylisoxazole-4-propionate (AMPA), GluN1/GluN2 NMDA and glycine receptors, respectively. To record the native GluN2-NMDARs-mediated currents, 10 μM bicuculline and 2 μM NBQX were added into the extracellular solution to block GABAA receptors and AMPA receptors, respectively ([Grand et al., 2018]; [Otsu et al., 2019]; [Zhu et al., 2020]).
Patch-clamp data were processed using Clampfit 10.4 (Molecular Device, Sunnyvale, CA, United States) and analyzed with GraphPad Prism 5.0 (GraphPad Software, San Diego, CA, United States). […]

GluN3A = conditions: ref Yao and Mayer, 2006; cited from earlier work
GluN1/GluN3 receptors = target: GluN1/GluN3 receptors; parameters: method as in Zhu et al., 2020; conditions: ref Zhu et al., 2020; cited from earlier work

T1 sequence (Q9R1M7 24-1135, other chains not shown): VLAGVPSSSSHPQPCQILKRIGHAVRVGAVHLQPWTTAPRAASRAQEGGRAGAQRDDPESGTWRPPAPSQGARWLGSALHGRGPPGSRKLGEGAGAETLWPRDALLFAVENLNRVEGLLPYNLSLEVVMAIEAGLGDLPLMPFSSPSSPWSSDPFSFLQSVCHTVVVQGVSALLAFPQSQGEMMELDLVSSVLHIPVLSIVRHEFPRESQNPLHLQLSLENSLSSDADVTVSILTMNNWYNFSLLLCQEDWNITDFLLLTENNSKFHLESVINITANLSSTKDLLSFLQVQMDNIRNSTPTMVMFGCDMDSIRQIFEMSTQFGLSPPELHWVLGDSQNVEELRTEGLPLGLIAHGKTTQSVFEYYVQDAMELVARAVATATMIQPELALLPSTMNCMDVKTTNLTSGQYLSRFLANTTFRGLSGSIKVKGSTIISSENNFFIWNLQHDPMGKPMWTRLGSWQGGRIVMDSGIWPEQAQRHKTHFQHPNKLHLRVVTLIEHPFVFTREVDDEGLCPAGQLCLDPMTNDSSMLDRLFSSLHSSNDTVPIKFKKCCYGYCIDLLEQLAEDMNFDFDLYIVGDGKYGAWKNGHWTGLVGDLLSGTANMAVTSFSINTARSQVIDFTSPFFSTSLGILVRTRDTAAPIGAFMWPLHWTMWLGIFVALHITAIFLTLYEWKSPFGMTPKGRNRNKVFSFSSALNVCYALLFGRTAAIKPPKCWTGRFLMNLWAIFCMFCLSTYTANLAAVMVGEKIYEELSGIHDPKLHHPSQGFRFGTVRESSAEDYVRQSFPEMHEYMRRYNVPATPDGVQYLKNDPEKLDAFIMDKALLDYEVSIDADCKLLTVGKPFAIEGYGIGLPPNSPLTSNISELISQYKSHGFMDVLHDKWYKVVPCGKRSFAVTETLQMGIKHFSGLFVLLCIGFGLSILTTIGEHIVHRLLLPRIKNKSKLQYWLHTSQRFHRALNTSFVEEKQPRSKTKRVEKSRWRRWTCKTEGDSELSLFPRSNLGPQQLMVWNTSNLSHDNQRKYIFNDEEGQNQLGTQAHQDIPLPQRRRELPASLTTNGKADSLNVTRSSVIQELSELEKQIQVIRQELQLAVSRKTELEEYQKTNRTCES

remaining activity at 3 µM (GluN1/GluN3A receptors [2]) | SMILES | further results
 | CCOC(=O)Nc1ccc(NCc2ccc(F)cc2)nc1N [flupirtine maleate] | identification in HTS (GluN1/GluN3A receptors [1]): identified in both the primary screening and secondary screening
53 ± 2% | Oc1ccc(-c2nc3cc(O)cc(Br)c3o2)cc1 [WAY200070, 7-bromo-2-(4-hydroxyphenyl) benzoxazol-5-ol] | 
89 ± 4% | Cc1[nH]c(/C=C2\C(=O)Nc3ccccc32)c(C)c1CCC(=O)O [SU6668] | 
 | N[C@H](CO)C(=O)O [D-serine] | identification in HTS (GluN1/GluN3A receptors [1]): identified in both the primary screening and secondary screening
84 ± 4% | CNc1nc(-c2ccc3c(N)n[nH]c3c2)cc(N2C[C@@H](C(=O)NC3CCCCC3)CC[C@H]2C)n1 [GSK2334470] | 
80 ± 4% | O=C(O)c1cc(O)c2c(c1)C(=O)c1cccc(O)c1C2=O [Rhein] | 
 | O=C(O)c1cc(=O)c2c(Cl)cc(Cl)cc2[nH]1 [5,7-DCKA] | identification in HTS (GluN1/GluN3A receptors [1]): identified in both the primary screening and secondary screening
 | Nc1nc2ccc(OC(F)(F)F)cc2s1 [riluzole] | identification in HTS (GluN1/GluN3A receptors [1]): identified in both the primary screening and secondary screening
 | O=c1[nH]c2cc(Cl)ccc2c(O)c1-c1cccc(Oc2ccccc2)c1 [L-701324] | identification in HTS (GluN1/GluN3A receptors [1]): identified in both the primary screening and secondary screening
 | CCCCCCCCCCCCCCCCn1cc[n+](Cc2ccccc2)c1C.[I-] [NH125] | I drug/I control (GluN1/GluN3A receptors [2]): 0.84 ± 0.03
 | COc1ccc(S(=O)(=O)N(CCO)c2ccccc2CN(C)C/C=C/c2ccc(Cl)cc2)cc1.O=P(O)(O)O [KN93 Phosphate] | I drug/I control (GluN1/GluN3A receptors [2]): 0.90 ± 0.02
48 ± 2% | Cc1ccc(CN(Cc2ccc(-c3ccccc3S(=O)(=O)NC#N)cc2)C(=O)c2ccccc2Cl)cc1 [S0859, 2-chloro-N-[2'-(N-cyanosulfamoyl)biphenyl-4-ylmethyl]-N-(4-methylbenzyl) benzamide] | 
86 ± 3% | CC(C)c1cc(C(C)C)c(CC(=O)NS(=O)(=O)Oc2c(C(C)C)cccc2C(C)C)c(C(C)C)c1 [Avasimibe] | 
98 ± 2% | NC(=O)N1CCC(CC(=O)N2CCC([C@H]3c4ncc(Br)cc4CCc4cc(Cl)cc(Br)c43)CC2)CC1 [Lonafarnib] | 
103 ± 5% | Nc1n[n+]([O-])c2ccccc2[n+]1[O-] [Tirapazamine] | 
 | NCC(=O)O [glycine] | higher affinity for GluN3A than for GluN1 (GluN3A): 650 fold
92 ± 6% | CC(C)(O)CC(=O)NCCn1ccc2ncnc(Nc3ccc(Oc4cccc(C(F)(F)F)c4)c(Cl)c3)c21 [TAK285] | 
 | COc1ccc(OCC(c2ccc(OC)cc2)N2Cc3ccccc3C2=O)cc1 (stereo not shown) [EU1180-438] | IC50 (GluN1/GluN3 receptors): 1800 ± 300 nM

SMILES | remaining activity at 3 µM (GluN1/GluN3A receptors [2]) | further results
COc1cc(OC)c(C=C2C(O)=Nc3ccccc32)c(OC)c1 [IC261] | 88 ± 1% | 
